For 18 compounds, IC50 results are on record in US20210269434A1, “TRICYCLIC COMPOUNDS AS INHIBITORS OF KRAS” (Incyte Corporation, priority 2020, published 2021).

Assay [1] deals with KRAS G12C (Homo sapiens, UniProt P01116, G12C). Put plainly: GDP-GTP exchange assay (KRAS_G12C exchange). The assay is classed as biochemical. The note with it: bodipy-GDP loaded KRAS G12C 2.5 nM, SOS1 150 nM, GppNHp; 2 hours pre-incubation, 2 hours reaction; read-out: G12C_exchange. The procedure, abridged: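 Fluorescence exchange of bodipy-GDP for GppNHp, SOS1-driven, read at 485/520 nm; IC50 from four-parameter variable-slope fit. Both mutants used 2.5 nM final labelled protein and a 2 h compound pre-incubation. G12C reaction had 500 uM GppNHp and 150 nM SOS1 for 2 h; G12D ran 4 h.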

Assay [2] has as its system MIA PaCa-2 (KRAS G12C) cells. Briefly: Cellular pERK HTRF assay (KRAS_G12C pERK). The class given is cell-based, human. The note with it: Homo sapiens, MIA PaCa-2, 4 hours incubation, read-out: G12C_pERK. The procedure, abridged: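 Phospho-ERK1/2 HTRF readout (665 and 620 nm) in lysed MIA PaCa-2 cells, antibodies incubated overnight at room temperature. Cells seeded the day before and treated with G12C compounds for 4 h at 37 °C; IC50 fitted to percent inhibition against log inhibitor concentration.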

KRAS G12C, sequence (P01116 1-188 isoform P01116-2 G12C): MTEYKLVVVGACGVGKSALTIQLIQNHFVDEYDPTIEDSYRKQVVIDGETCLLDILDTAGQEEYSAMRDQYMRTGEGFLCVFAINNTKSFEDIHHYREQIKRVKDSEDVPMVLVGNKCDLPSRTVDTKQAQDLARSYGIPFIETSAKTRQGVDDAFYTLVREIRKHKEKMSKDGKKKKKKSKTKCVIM

In the case of `CC#CC(=O)N1CC[C@H](n2nnc3c(N4CC(N(C)C)C4)nc4c(F)c(-c5c(C)c(Cl)cc6[nH]ncc56)c(C#N)cc4c32)C[C@H]1CC#N` [Example 170, 1-((2S,4S)-1-(but-2-ynoyl)-2-(cyanomethyl)piperidin-4-yl)-7-(6-chloro-5-methyl-1H-indazol-4-yl)-4-(3-(dimethylamino)azetidin-1-yl)-6-fluoro-1H-[1,2,3]triazolo[4,5-c]quinoline-8-carbonitrile], the IC50 in assay [1] and in assay [2] was no more than 100 nM in each case.
As for `C=CC(=O)N1CC[C@H](n2cnc3c(N4CC(N(C)C)C4)nc4cc(-c5cccc(Cl)c5C)c(Cl)cc4c32)C[C@H]1CC#N` [Example 171, 2-((2S,4S)-1-acryloyl-4-(8-chloro-7-(3-chloro-2-methylphenyl)-4-(3-(dimethylamino)azetidin-1-yl)-1H-imidazo[4,5-c]quinolin-1-yl)piperidin-2-yl)acetonitrile], the IC50 in assay [1] and in assay [2] was no more than 100 nM throughout.
For `C=CC(=O)N1CC[C@H](n2nnc3c(N4CC(N(C)C)C4)nc4cc(-c5cccc(Cl)c5C)c(C)cc4c32)C[C@H]1CC#N` [Example 172, 2-((2S,4S)-1-acryloyl-4-(7-(3-chloro-2-methylphenyl)-4-(3-(dimethylamino)azetidin-1-yl)-8-methyl-1H-[1,2,3]triazolo[4,5-c]quinolin-1-yl)piperidin-2-yl)acetonitrile], the IC50 in assay [1] and in assay [2] was no more than 100 nM throughout.
For `C=CC(=O)N1CC[C@H](n2cnc3c(-c4cccnc4C)nc4c(F)c(-c5cccc(Cl)c5C)c(Cl)cc4c32)C[C@H]1CC#N` [Example 173, 2-((2S,4S)-1-acryloyl-4-(8-chloro-7-(3-chloro-2-methylphenyl)-6-fluoro-4-(2-methylpyridin-3-yl)-1H-imidazo[4,5-c]quinolin-1-yl)piperidin-2-yl)acetonitrile], the IC50 in assay [1] and in assay [2] was no more than 100 nM each time.
Turning to `C=CC(=O)N1CC[C@H](n2nnc3c(-c4cccnc4C)nc4c(F)c(-c5cccc(Cl)c5C)c(Cl)cc4c32)C[C@H]1CC#N` [Example 174, 2-((2S,4S)-1-acryloyl-4-(8-chloro-7-(3-chloro-2-methylphenyl)-6-fluoro-4-(2-methylpyridin-3-yl)-1H-[1,2,3]triazolo[4,5-c]quinolin-1-yl)piperidin-2-yl)acetonitrile], the IC50 in assay [1] and in assay [2] was no more than 100 nM each time.
`CN(C)C/C=C/C(=O)N1CC[C@H](n2cnc3c(N4CC(N(C)C)C4)nc4c(F)c(-c5cncc6ccccc56)c(Cl)cc4c32)C[C@H]1CC#N` [Example 175, 2-((2S,4S)-4-(8-chloro-4-(3-(dimethylamino)azetidin-1-yl)-6-fluoro-7-(isoquinolin-4-yl)-1H-imidazo[4,5-c]quinolin-1-yl)-1-((E)-4-(dimethylamino)but-2-enoyl)piperidin-2-yl)acetonitrile]: the IC50 in assay [1] and in assay [2] was no more than 100 nM in each case.
In the case of `Cc1c(Cl)cc2[nH]ncc2c1-c1c(Cl)cc2c(nc(N3CC(N(C)C)C3)c3ncn([C@H]4CCN(C(=O)/C=C/CN(C)C)[C@H](CC#N)C4)c32)c1F` [Example 176, 2-((2S,4S)-4-(8-chloro-7-(6-chloro-5-methyl-1H-indazol-4-yl)-4-(3-(dimethylamino)-azetidin-1-yl)-6-fluoro-1H-imidazo[4,5-c]quinolin-1-yl)-1-((E)-4-(dimethylamino)but-2-enoyl)piperidin-2-yl)acetonitrile], the IC50 in assay [1] and in assay [2] was no more than 100 nM each time.
With `CC#CC(=O)N1CC[C@H](n2cnc3c(N4CC(N(C)C)C4)nc4c(F)c(-c5c(C)c(Cl)cc6[nH]ncc56)c(Cl)cc4c32)C[C@H]1CC#N` [Example 177a, 2-((2S,4S)-1-(but-2-ynoyl)-4-(8-chloro-7-(6-chloro-5-methyl-1H-indazol-4-yl)-4-(3-(dimethylamino)azetidin-1-yl)-6-fluoro-1H-imidazo[4,5-c]quinolin-1-yl)piperidin-2-yl)acetonitrile], the IC50 in assay [1] and in assay [2] was no more than 100 nM throughout.
Consider `Cc1c(Cl)cc2[nH]ncc2c1-c1c(Cl)cc2c(nc(N3CC(N(C)C)C3)c3nnn([C@H]4CCN(C(=O)/C=C/CN(C)C)[C@H](CC#N)C4)c32)c1F` [Example 179a, 2-((2S,4S)-4-(8-chloro-7-(6-chloro-5-methyl-1H-indazol-4-yl)-4-(3-(dimethylamino)-azetidin-1-yl)-6-fluoro-1H-[1,2,3]triazolo[4,5-c]quinolin-1-yl)-1-((E)-4-(dimethyl-amino)but-2-enoyl)piperidin-2-yl)acetonitrile], for which the IC50 in assay [1] and in assay [2] was no more than 100 nM throughout.
`CC#CC(=O)N1CC[C@H](n2cnc3c(OC[C@@H]4CCCN4C)nc4c(F)c(-c5c(C)c(Cl)cc6[nH]ncc56)c(Cl)cc4c32)C[C@H]1CC#N` [Example 180, 2-((2S,4S)-1-(but-2-ynoyl)-4-(8-chloro-7-(6-chloro-5-methyl-1H-indazol-4-yl)-6-fluoro-4-(((S)-1-methylpyrrolidin-2-yl)methoxy)-1H-imidazo[4,5-c]quinolin-1-yl)piperidin-2-yl)acetonitrile]: the IC50 in assay [1] and in assay [2] was no more than 100 nM throughout.
For `Cc1c(Cl)cc2[nH]ncc2c1-c1c(Cl)cc2c(nc(OC[C@@H]3CCCN3C)c3ncn([C@H]4CCN(C(=O)/C=C/CN(C)C)[C@H](CC#N)C4)c32)c1F` [Example 181a, 2-((2S,4S)-4-(8-chloro-7-(6-chloro-5-methyl-1H-indazol-4-yl)-6-fluoro-4-(((S)-1-methylpyrrolidin-2-yl)-methoxy)-1H-imidazo[4,5-c]quinolin-1-yl)-1-((E)-4-(dimethylamino)but-2-enoyl)piperidin-2-yl)acetonitrile], the IC50 in assay [1] and in assay [2] was no more than 100 nM in each case.
`CC#CC(=O)N1CC[C@H](n2nnc3c(OC[C@@H]4CCCN4C)nc4c(F)c(-c5c(C)c(Cl)cc6[nH]ncc56)c(Cl)cc4c32)C[C@H]1CC#N` [Example 182, 2-((2S,4S)-1-(but-2-ynoyl)-4-(8-chloro-7-(6-chloro-5-methyl-1H-indazol-4-yl)-6-fluoro-4-(((S)-1-methylpyrrolidin-2-yl)methoxy)-1H-[1,2,3]triazolo[4,5-c]quinolin-1-yl)piperidin-2-yl)acetonitrile]: the IC50 in assay [1] and in assay [2] was no more than 100 nM each time.
In the case of `Cc1c(Cl)cc2[nH]ncc2c1-c1c(Cl)cc2c(nc(OC[C@@H]3CCCN3C)c3nnn([C@H]4CCN(C(=O)/C=C/CN(C)C)[C@H](CC#N)C4)c32)c1F` [Example 183a, 2-((2S,4S)-4-(8-chloro-7-(6-chloro-5-methyl-1H-indazol-4-yl)-6-fluoro-4-(((S)-1-methylpyrrolidin-2-yl)-methoxy)-1H-[1,2,3]triazolo-[4,5-c]quinolin-1-yl)-1-((E)-4-(dimethylamino)but-2-enoyl)piperidin-2-yl)acetonitrile], the IC50 in assay [1] and in assay [2] was no more than 100 nM throughout.
Consider `COC/C=C/C(=O)N1CC[C@H](n2cnc3c(OC[C@@H]4CCCN4C)nc4c(F)c(-c5c(C)c(Cl)cc6[nH]ncc56)c(Cl)cc4c32)C[C@H]1CC#N` [Example 184a, 2-((2S,4S)-4-(8-chloro-7-(6-chloro-5-methyl-1H-indazol-4-yl)-6-fluoro-4-(((S)-1-methylpyrrolidin-2-yl)methoxy)-1H-imidazo[4,5-c]quinolin-1-yl)-1-((E)-4-methoxybut-2-enoyl)piperidin-2-yl)acetonitrile], for which the IC50 in assay [1] and in assay [2] was no more than 100 nM throughout.
As for `COC/C=C/C(=O)N1CC[C@H](n2nnc3c(N4CC(N(C)C)C4)nc4c(F)c(-c5c(C)c(Cl)cc6[nH]ncc56)c(Cl)cc4c32)C[C@H]1CC#N` [Example 186a, 2-((2S,4S)-4-(8-chloro-7-(6-chloro-5-methyl-1H-indazol-4-yl)-4-(3-(dimethylamino)azetidin-1-yl)-6-fluoro-1H-[1,2,3]triazolo[4,5-c]quinolin-1-yl)-1-((E)-4-methoxybut-2-enoyl)piperidin-2-yl)acetonitrile], the IC50 in assay [1] and in assay [2] was no more than 100 nM each time.
Turning to `C=CC(=O)N1CC[C@H](n2nnc3c(OC[C@@H]4CCCN4C)nc4c(F)c(-c5ccc(F)c(C)c5)c(Cl)cc4c32)C[C@H]1CC#N` [Example 187, 2-((2S,4S)-1-acryloyl-4-(8-chloro-6-fluoro-7-(4-fluoro-3-methylphenyl)-4-(((S)-1-methylpyrrolidin-2-yl)methoxy)-1H-[1,2,3]triazolo[4,5-c]quinolin-1-yl)piperidin-2-yl)acetonitrile], the IC50 in assay [1] and in assay [2] was no more than 100 nM each time.
In the case of `CC#CC(=O)N1CC[C@H](n2nnc3cnc4c(F)c(-c5c(C)c(Cl)cc6[nH]ncc56)c(Cl)cc4c32)C[C@H]1CC#N` [Example 188, 2-((2S,4S)-1-(but-2-ynoyl)-4-(8-chloro-7-(6-chloro-5-methyl-1H-indazol-4-yl)-6-fluoro-1H-[1,2,3]triazolo[4,5-c]quinolin-1-yl)piperidin-2-yl)acetonitrile], the IC50 in assay [1] and in assay [2] was no more than 100 nM in each case.
For `C=C(F)C(=O)N1CC[C@H](n2nnc3c(N4CC(N(C)C)C4)nc4c(F)c(-c5c(C)c(Cl)cc6[nH]ncc56)c(Cl)cc4c32)C[C@H]1CC#N` [Example 189, 2-((2S,4S)-4-(8-chloro-7-(6-chloro-5-methyl-1H-indazol-4-yl)-4-(3-(dimethylamino)azetidin-1-yl)-6-fluoro-1H-[1,2,3]triazolo[4,5-c]quinolin-1-yl)-1-(2-fluoroacryloyl)piperidin-2-yl)acetonitrile], the IC50 in assay [1] and in assay [2] was no more than 100 nM throughout.
